Results on 28 molecules are retold here after patent US8268885B2, “Entry inhibitors of the HIV virus” (priority 2003, dated 2012).

Holding throughout (type): cell-based
Data set [1] relates to cell-cell fusion between cell line persistently expressing HIV and a cell line expressing CD4 and CXCR4. Nature of the data set: entry reporter assay (ERA): inhibition of cell-cell fusion, FACS read-out. The following applies: for EC50: Human immunodeficiency virus 1, read-out: ERA assay EC50; for ERA assay % inh: cell-cell fusion, concentration not given. The protocol:
(§1) The compounds were tested in the anti-viral replication assay using the MT4-LTR-EGFP cells and in the ERA assay. Toxicity was measured using MT4-CMV-EGFP cells.

Data set [2] in a line: toxicity assay using MT4-CMV-EGFP cells (reduced expression of GFP reporter). The following applies: human. The procedure:
A toxicity assay wherein a reduced expression of the GFP reporter protein (Mt4-CMV-EGFP cells) serves as a marker for cellular toxicity of a test compound can be used to measure the toxicity of the present compounds.
as §1

For another data set, the system named is HIV. The data set is described as follows: anti-viral replication assay using MT4-LTR-EGFP cells. The following applies: Human immunodeficiency virus 1, read-out: antiviral EC50. The procedure:
as §1

Bounds are passed on as bounds.

On to `COc1ccc(S(=O)(=O)Nc2ccc(Oc3ccc(NC(=O)COC(C)=O)cc3)cc2)cc1` [Compound 1, acetic acid {4-[4-(4-methoxy-benzenesulfonylamino)-phenoxy]-phenylcarbamoyl}-methyl ester], for which, in data set [1], the EC50 worked out at 92 µM and the “ERA assay % inh” value was found to be 89%. Besides, the CC50 in data set [2] is above 27.7 µM. Besides, the EC50 in the data set with HIV turned out to be 1.69 µM.
The matching figures for `O=C(Nc1ccc(Oc2cccc3cnccc23)cc1)c1ccc([N+](=O)[O-])cc1` [Compound 4]: above 200 µM, 30%, above 100 µM and 5.34 µM.
`N#Cc1ccc(C(=O)Nc2ccc(Oc3cccc4cnccc34)cc2)cc1` [Compound 5] had a CC50 in data set [2] above 100 µM. Besides, in the data set with HIV, the EC50 came out at 3.29 µM.
As for `O=C(O)c1ccc(S(=O)(=O)Nc2ccc(Oc3cccc4cnccc34)cc2)cc1` [Compound 6], in data set [1], the EC50 turned out to be 182 µM and the “ERA assay % inh” value is recorded as 52%. Further, in data set [2], the CC50 was above 100 µM. Also, in the data set with HIV, the EC50 is 18.6 µM.
The matching figures for `O=C(CNCCN1CCCC1)Nc1ccc(Oc2cccc3c2N(C(=O)CNCCN2CCCC2)CCC3)cc1` [Compound 7]: above 200 µM, 29%, above 100 µM and 57.7 µM.
As for `O=C(CN[C@@H](Cc1ccccc1)C(=O)O)Nc1ccc(Oc2cccc(C(=O)O)c2)cc1C(F)(F)F` [Compound 8], the EC50 in data set [1] is above 200 µM; with HIV, above 100 µM. Besides, in data set [1], the “ERA assay % inh” value came out at 3%. The molecule further registered a CC50 in data set [2] above 100 µM.
`O=C(Cc1ccccc1)Nc1ccc(Oc2ccc(NC(=O)Cc3ccccc3)cc2)cc1` [Compound 10]: in data set [1], the EC50 is above 100 µM and the “ERA assay % inh” value is recorded as 48%. Besides, the CC50 in data set [2] was above 32 µM. Also, in the data set on HIV, the EC50 is above 32 µM.
As for `COc1cccc(C(=O)Nc2ccc(Oc3ccc(NC(=O)c4cccc(OC)c4)cc3)cc2)c1` [Compound 11], in data set [1], the EC50 worked out at 68.9 µM and the “ERA assay % inh” value turned out to be 64%. The molecule also yielded a CC50 in data set [2] above 32 µM. Also, the EC50 in the data set with HIV was above 32 µM.
With `O=C(Nc1ccc(Oc2ccc(NC(=O)c3cccc([N+](=O)[O-])c3)cc2)cc1)c1cccc([N+](=O)[O-])c1` [Compound 12], the EC50 was above 200 µM in data set [1] and 41.3 µM in the data set with HIV. For the same molecule, the “ERA assay % inh” value in data set [1] was 17%. In addition, half-maximal cytotoxicity in data set [2] (CC50) was put at 54.2 µM.
The matching figures for `CN1CCN(CC(=O)Nc2ccc(Oc3ccc(NC(=O)CN4CCN(C)CC4)cc3)cc2)CC1` [Compound 16]: above 200 µM, 55 µM, 42% and above 100 µM.
For `O=C(COc1ccccc1)Nc1ccc(Oc2cccc3c2N(C(=O)COc2ccccc2)CCC3)cc1` [Compound 20], in that order: above 100 µM, 3.25 µM, 39% and above 32 µM.
The matching figures for `CCCCc1ccc(C(=O)Nc2ccc(Oc3cccc4c3N(C(=O)c3ccc(CCCC)cc3)CCC4)cc2)cc1` [Compound 21]: above 200 µM, above 34 µM, 9% and above 100 µM.
In the case of `O=C(Nc1ccc(Oc2cccc3c2N(C(=O)c2ccco2)CCC3)cc1)c1ccco1` [Compound 23, Furan-2-carboxylic acid {4-[1-(furan-2-carbonyl)-1,2,3,4-tetrahydro-quinolin-8-yloxy]-phenyl}-amide], in data set [1], the EC50 worked out at 123 µM and the “ERA assay % inh” value is on record as 92%. The molecule further gave a CC50 in data set [2] of 34.2 µM. Moreover, the EC50 in the data set with HIV amounted to 11.2 µM.
For `O=C(COc1ccccc1)Nc1ccc(Oc2ccc([N+](=O)[O-])cc2)cc1` [Compound 24], in that order: 78.4 µM, 68%, above 100 µM and 19.5 µM.
For `COc1ccc(S(=O)(=O)Nc2ccc(Oc3ccc([N+](=O)[O-])cc3)cc2)cc1` [Compound 29], in that order: 177 µM, 59%, 61.6 µM and 1.18 µM.
Turning to `COc1cccc(C(=O)Nc2ccc(Oc3ccc(NC(=O)COc4ccccc4)cc3)cc2)c1` [Compound 30], the half-maximal cytotoxic concentration (CC50) in data set [2] came to 3.85 µM. Also, in the data set with HIV, the EC50 was 0.37 µM.
Take `O=C(COc1ccccc1)Nc1ccc(Oc2ccc(NC(=O)c3cccc([N+](=O)[O-])c3)cc2)cc1` [Compound 31]: in data set [1], the EC50 was above 100 µM and the “ERA assay % inh” value came out at 13%. Also, the CC50 in data set [2] is 3.41 µM. In addition, in the data set with HIV, the EC50 is 0.43 µM.
The matching figures for `O=C(COc1ccccc1)Nc1ccc(Oc2ccc(NC(=O)c3ccc4c(c3)OCO4)cc2)cc1` [Compound 32]: above 200 µM, 29%, 19.9 µM and 4.17 µM.
The matching figures for `O=C(COc1ccccc1)Nc1ccc(Oc2ccc(NC(=O)Cc3ccccc3)cc2)cc1` [Compound 33]: 196 µM, 52%, 30.2 µM and 5.01 µM.
The matching figures for `O=C(COc1ccccc1)Nc1ccc(Oc2ccc(NC(=O)c3ccco3)cc2)cc1` [Compound 34]: above 200 µM, 41%, 83.2 µM and 1.24 µM.
On to `CC(=O)OCC(=O)Nc1ccc(Oc2ccc(NC(=O)COc3ccccc3)cc2)cc1` [Compound 35], for which the figures for the EC50 (in data set [1]; in the data set with HIV) were 150 µM and 3.28 µM, respectively. In addition, in data set [1], the “ERA assay % inh” value is 55%. The same molecule registered a CC50 in data set [2] of 23.6 µM.
The matching figures for `COc1ccc(S(=O)(=O)Nc2ccc(Oc3ccc(NC(=O)c4cccc(OC)c4)cc3)cc2)cc1` [Compound 36]: above 200 µM, 1.05 µM, 9% and 5.87 µM.
Take `COc1ccc(S(=O)(=O)Nc2ccc(Oc3ccc(NC(=O)c4cccc([N+](=O)[O-])c4)cc3)cc2)cc1` [Compound 37]: the CC50 in data set [2] was above 32 µM. Further, in the data set with HIV, the EC50 is 3.92 µM.
Take `COc1ccc(S(=O)(=O)Nc2ccc(Oc3ccc(NC(=O)Cc4ccccc4)cc3)cc2)cc1` [Compound 39]: the EC50 in data set [1] is above 100 µM; in the data set with HIV, 1.56 µM. In addition, in data set [1], the “ERA assay % inh” value is listed as 45%. The CC50 in data set [2] is above 100 µM.
On to `COc1ccc(S(=O)(=O)Nc2ccc(Oc3ccc(NC(=O)c4ccco4)cc3)cc2)cc1` [Compound 40], for which, in data set [1], the EC50 is 40.9 µM and the “ERA assay % inh” value is reported as 79%. Also, the CC50 in data set [2] was 22.4 µM. For the same molecule, the EC50 with HIV was determined as 0.15 µM.
For `O=C(COc1ccccc1)NCc1cccc(Oc2ccc(NC(=O)COc3ccccc3)cc2)c1` [Compound 42], in data set [1], the EC50 was above 200 µM and the “ERA assay % inh” value amounted to 37%. This molecule had a CC50 in data set [2] of 46.5 µM. The EC50 in the data set with HIV worked out at 3.77 µM.
Take `O=C(COCc1ccccc1)NCc1cccc(Oc2ccc(NC(=O)COCc3ccccc3)cc2)c1` [Compound 43]: the EC50 came out at 83.6 µM in data set [1] and 11.8 µM with HIV. Also, the “ERA assay % inh” value in data set [1] was 54%. The half-maximal cytotoxic concentration (CC50) in data set [2] was above 32 µM.
The matching figures for `CCCCc1ccc(C(=O)NCc2cccc(Oc3ccc(NC(=O)c4ccc(CCCC)cc4)cc3)c2)cc1` [Compound 44]: above 200 µM, 2 µM, 22% and above 32 µM.
